Measurements taken from PubChem BioAssay AID330 (DTP/NCI, 2004).
“And” between values parts separate entries of the source, which are not always exact repeats. Identical values can stand only once. Inconclusive results and toxic doses are left out. Rule for the calls: active = survival T/C of 150% or more; inactive = T/C below 125% in these data.

Tested on: P388 leukemia ip, CD2F1 mice, survival T/C
Test: NCI In Vivo Anticancer Drug Screen. Data for tumor model P388 Leukemia (intraperitoneal) in CD2F1 (CDF1) mice
Conditions: endpoint: median survival time, higher = longer survival
Procedure, shortened: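 Mice carrying the transplanted tumor received test compound or vehicle. Survival was recorded in each group, and the value is the treated-group measurement divided by that of the vehicle-treated control group.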

[1] = dose: 25.0 mg/kg/injection, schedule: Q01DX009 (ip), vehicle: saline with Tween-80
[2] = dose: 50.0 mg/kg/injection, schedule: Q01DX009 (ip), vehicle: saline with Tween-80
[3] = dose: 50.0 mg/kg/injection, schedule: Q04DX003 (ip), vehicle: saline with Tween-80
[4] = dose: 100.0 mg/kg/injection, schedule: Q01DX009 (ip), vehicle: saline with Tween-80
[5] = dose: 100.0 mg/kg/injection, schedule: Q04DX003 (ip), vehicle: saline with Tween-80
[6] = dose: 25.0 mg/kg/injection, schedule: Q01DX009 (ip), vehicle: Klucel (hydroxypropylcellulose) (HPC)
[7] = dose: 50.0 mg/kg/injection, schedule: Q01DX009 (ip), vehicle: Klucel (hydroxypropylcellulose) (HPC)
[8] = dose: 100.0 mg/kg/injection, schedule: Q01DX009 (ip), vehicle: Klucel (hydroxypropylcellulose) (HPC)
[9] = dose: 200.0 mg/kg/injection, schedule: Q01DX009 (ip), vehicle: Klucel (hydroxypropylcellulose) (HPC)
[10] = dose: 60.0 mg/kg/injection, schedule: Q01DX005 (ip), vehicle: saline with Tween-80
[11] = dose: 120.0 mg/kg/injection, schedule: Q01DX005 (ip), vehicle: saline with Tween-80
[12] = dose: 240.0 mg/kg/injection, schedule: Q01DX005 (ip), vehicle: saline with Tween-80
[13] = dose: 100.0 mg/kg/injection, schedule: Q04DX003 (ip), vehicle: saline
[14] = dose: 400.0 mg/kg/injection, schedule: Q04DX003 (ip), vehicle: saline
[15] = dose: 50.0 mg/kg/injection, schedule: Q01DX009 (ip), vehicle: saline
[16] = dose: 100.0 mg/kg/injection, schedule: Q01DX009 (ip), vehicle: saline
[17] = dose: 200.0 mg/kg/injection, schedule: Q01DX009 (ip), vehicle: saline
[18] = dose: 50.0 mg/kg/injection, schedule: Q01DX005 (ip), vehicle: saline with Tween-80
[19] = dose: 100.0 mg/kg/injection, schedule: Q01DX005 (ip), vehicle: saline with Tween-80
[20] = dose: 200.0 mg/kg/injection, schedule: Q01DX005 (ip), vehicle: saline with Tween-80
[21] = dose: 12.5 mg/kg/injection, schedule: Q01DX009 (ip), vehicle: Klucel (hydroxypropylcellulose) (HPC)
[22] = dose: 100.0 mg/kg/injection, schedule: Q01DX001 (ip), vehicle: saline with Tween-80
[23] = dose: 200.0 mg/kg/injection, schedule: Q01DX001 (ip), vehicle: saline with Tween-80
[24] = dose: 400.0 mg/kg/injection, schedule: Q01DX001 (ip), vehicle: saline with Tween-80
[25] = dose: 200.0 mg/kg/injection, schedule: Q04DX003 (ip), vehicle: saline with Tween-80
[26] = dose: 400.0 mg/kg/injection, schedule: Q04DX003 (ip), vehicle: saline with Tween-80

Measured: T/C

Cc1ccc(C)c(N=Nc2ccc(O)cc2)c1
inactive: [1] 100 % of control | [2] 109 % of control | [3] 104 % of control | [4] 100 % of control | [5] 100 % of control

CC/C=c1/[nH]c(=O)/c(=C\c2ccc([N+](=O)[O-])cc2)[nH]c1=O
inactive: [6] 90 % of control | [7] 87 % of control and 91 % of control | [8] 86 % of control | [9] 94 % of control

COC(=O)/N=c1\cc(N2CC=CCC2)nc(N)n1O
inactive: [10] 94 % of control | [11] 94 % of control | [12] 91 % of control

O=C(O)/C(Cl)=C(Cl)\C=N\c1ncn[nH]1
inactive: dose: 6.25 mg/kg/injection, schedule: Q01DX005 (ip), vehicle: Klucel (hydroxypropylcellulose) (HPC) 104 % of control | dose: 12.5 mg/kg/injection, schedule: Q01DX005 (ip), vehicle: Klucel (hydroxypropylcellulose) (HPC) 100 % of control | dose: 25.0 mg/kg/injection, schedule: Q01DX005 (ip), vehicle: Klucel (hydroxypropylcellulose) (HPC) 112 % of control

CN(C)c1ccc2c(c1)c1cc(N(C)C)ccc1n2Cc1ccccc1
inactive: [10] 102 % of control | [11] 94 % of control | [12] 98 % of control

CC1SC(C)C1=O (stereo not given)
inactive: dose: 60.0 mg/kg/injection, schedule: Q01DX005 (ip), vehicle: saline 109 % of control | dose: 120.0 mg/kg/injection, schedule: Q01DX005 (ip), vehicle: saline 107 % of control | dose: 240.0 mg/kg/injection, schedule: Q01DX005 (ip), vehicle: saline 100 % of control

OCC(COCCCCCCCCCCCCCC1C=CCC1)OCCCCCCCCCCCCCC1C=CCC1 (stereo not given)
inactive: [13] 96 % of control | dose: 200.0 mg/kg/injection, schedule: Q04DX003 (ip), vehicle: saline 89 % of control | [14] 93 % of control

COCC(=O)c1ccc(Cl)cc1
inactive: [15] 105 % of control | [16] 110 % of control and 96 % of control | [17] 105 % of control and 107 % of control

Cc1c2ccccc2c(C)c2c1cc[n+]1ccccc21
inactive: dose: 6.25 mg/kg/injection, schedule: Q04DX003 (ip), vehicle: other 105 % of control | dose: 12.5 mg/kg/injection, schedule: Q04DX003 (ip), vehicle: other 103 % of control | dose: 25.0 mg/kg/injection, schedule: Q04DX003 (ip), vehicle: other 99 % of control

CC1(C)CC(Nc2ncnc3c2ncn3C2OC(CO)C(O)C2O)CC(C)(C)N1O (stereo not given)
inactive: [15] 96 % of control | [16] 95 % of control | [17] 94 % of control

c1ccc2nc3c(ccc4ccccc43)cc2c1
inactive: dose: 50.0 mg/kg/injection, schedule: Q04DX003 (ip), vehicle: olive oil, sesame oil, peanut oil 101 % of control | dose: 91.0 mg/kg/injection, schedule: Q04DX003 (ip), vehicle: saline with Tween-80 104 % of control | dose: 100.0 mg/kg/injection, schedule: Q04DX003 (ip), vehicle: olive oil, sesame oil, peanut oil 103 % of control | dose: 182.0 mg/kg/injection, schedule: Q04DX003 (ip), vehicle: saline with Tween-80 101 % of control | dose: 200.0 mg/kg/injection, schedule: Q04DX003 (ip), vehicle: olive oil, sesame oil, peanut oil 103 % of control | dose: 364.0 mg/kg/injection, schedule: Q04DX003 (ip), vehicle: saline with Tween-80 99 % of control | dose: 400.0 mg/kg/injection, schedule: Q04DX003 (ip), vehicle: olive oil, sesame oil, peanut oil 105 % of control

COc1ccc2nc(-n3[nH]c(C)c(-c4cc(C)[nH]n4)c3=O)cc(C)c2c1
inactive: [18] 91 % of control | [19] 91 % of control | [20] 90 % of control

CCC1CCCCN1C (stereo not given)
inactive: dose: 25.0 mg/kg/injection, schedule: Q01DX005 (ip), vehicle: saline 103 % of control | dose: 25.0 mg/kg/injection, schedule: Q01DX009 (ip), vehicle: saline 105 % of control | dose: 50.0 mg/kg/injection, schedule: Q01DX005 (ip), vehicle: saline 98 % of control | [15] 110 % of control | dose: 100.0 mg/kg/injection, schedule: Q01DX005 (ip), vehicle: saline 95 % of control

CCOC(=O)C(=CNc1ccccc1-n1cccc1)C(=O)OCC
inactive: dose: 50.0 mg/kg/injection, schedule: Q01DX005 (ip), vehicle: Klucel (hydroxypropylcellulose) (HPC) 100 % of control | dose: 100.0 mg/kg/injection, schedule: Q01DX005 (ip), vehicle: Klucel (hydroxypropylcellulose) (HPC) 108 % of control | dose: 200.0 mg/kg/injection, schedule: Q01DX005 (ip), vehicle: Klucel (hydroxypropylcellulose) (HPC) 93 % of control

CCCC1OCC(O)C(C(O)C(=O)CN(C)c2ccccc2)O1 (stereo not given)
inactive: [18] 98 % of control | [19] 100 % of control | [20] 98 % of control

CCC1CN2CCc3cc(OC)c(OC)cc3C2CC1CCCl (stereo not given)
inactive: [21] 94 % of control | [6] 103 % of control | [7] 103 % of control and 106 % of control

CCCN1C(=O)C2C3C=CC(C2C1=O)C1C2C(=O)N(CCC)C(=O)C2C31 (stereo not given)
inactive: [22] 92 % of control | [23] 96 % of control | [24] 101 % of control

CCC1C(C#N)C(=O)NC(=O)C1C#N (stereo not given)
inactive: [7] 100 % of control | [8] 95 % of control | [9] 95 % of control

CCOC(=O)C(/C=N/NC(N)=S)CC (stereo not given)
inactive: [22] 100 % of control | [23] 99 % of control | [24] 97 % of control

CS1(C)=NC(=O)C2=C(N=1)c1ccccc1S2(=O)=O
inactive: [10] 97 % of control | [11] 94 % of control | [12] 89 % of control

O=C(O)c1c[nH]c2cc(OCc3ccc(Cl)c(Cl)c3)ccc2c1=O
inactive: dose: 12.5 mg/kg/injection, schedule: Q01DX009 (ip), vehicle: saline with Tween-80 95 % of control | [1] 91 % of control | [2] 94 % of control | [15] 92 % of control

O=C1NC(=O)C(=O)N1
inactive: [13] 100 % of control | [14] 100 % of control

C[N+]1(C)CCC(OC(=O)C(O)(c2ccccc2)C2CCCC2)C1 (stereo not given)
inactive: [21] 95 % of control | [6] 97 % of control | dose: 25.0 mg/kg/injection, schedule: Q04DX003 (ip), vehicle: saline with Tween-80 105 % of control | [7] 89 % of control and 95 % of control | [3] 102 % of control | [5] 99 % of control

CC(C)c1c2ccccc2nn1-c1ccccc1
inactive: [5] 97 % of control | [25] 89 % of control | [26] 91 % of control

O=C1CCC2(O)[C@@H]3Cc4ccc(O)c5c4[C@]2(CCN3Cc2ccoc2)C1O5 (stereo not given in full)
inactive: [15] 124 % of control | dose: 66.0 mg/kg/injection, schedule: Q01DX009 (ip), vehicle: saline 107 % of control and 91 % of control | [16] 105 % of control and 121 % of control and 96 % of control | dose: 150.0 mg/kg/injection, schedule: Q01DX009 (ip), vehicle: saline 98 % of control and 116 % of control

Cn1c(NCCN2CCOCC2)c(C(=O)/C=C/c2ccccc2)c(=O)n(C)c1=O
inactive: [18] 98 % of control | [19] 92 % of control | [20] 95 % of control

CC(=O)Oc1cc2oc([O-])c[n+]2c2ccccc12
inactive: dose: 50.0 mg/kg/injection, schedule: Q01DX001 (ip), vehicle: saline with Tween-80 106 % of control | dose: 60.0 mg/kg/injection, schedule: Q01DX005 (ip), vehicle: Klucel + Tween-80 124 % of control | [22] 113 % of control and 124 % of control | [23] 106 % of control and 121 % of control

CSCCC1NC(=O)C(C(C)=Nc2ccccc2)=C1O (stereo not given)
inactive: [2] 94 % of control | [4] 92 % of control | dose: 200.0 mg/kg/injection, schedule: Q01DX009 (ip), vehicle: saline with Tween-80 98 % of control | dose: 400.0 mg/kg/injection, schedule: Q01DX009 (ip), vehicle: saline with Tween-80 99 % of control

O=C(O)CCc1nc(-c2ccccc2)ncc1C(=O)O
inactive: [5] 100 % of control | [25] 100 % of control | [26] 98 % of control

CC(C)(C)/[N+]([O-])=C/C(c1ccccc1)C(/C=[N+](/[O-])C(C)(C)C)c1ccccc1 (stereo not given)
inactive: [10] 100 % of control | [11] 98 % of control | [12] 98 % of control
